According to PMC7855930, “Nontoxic Cobalt(III) Schiff Base Complexes with Broad‐Spectrum Antifungal Activity” (Chemistry (Weinheim an Der Bergstrasse, Germany), 2020):
Like-named read-outs stand apart in the source and are kept apart here.

Experiments:
[1] = Cyclic voltammetry; type: physicochemical; conditions: DMF with 0.1 M TBAP (this work)
Method: Cyclic voltammetry: Electrochemical measurements were carried out in the same manner as reported previously. ^[25b] Experiments were conducted using a Pine WaveNow potentiostat with a three‐electrode setup consisting of a glassy carbon working electrode, a platinum counter electrode, and an Ag wire quasi‐reference electrode. Complexes were dissolved in anhydrous DMF with 0.10 M [Bu4N][PF6] (TBAP) as the supporting electrolyte. Potentials were referenced using an internal standard of the ferrocene/ferricenium couple at 0.45 V vs. the saturated calomel electrode (SCE). ^[33] The sample cell was deoxygenated by bubbling nitrogen gas through the solution prior to analysis and maintained under a blanket of nitrogen during the experiment.

[2] = test system: C. deuterogattii CBS 7750; assay: Antifungal MIC assay (broth microdilution in YNB); type: cell-based, Cryptococcus deuterogattii
Excerpt: (§1) Yeast strains: Candida albicans (ATCC 90028, NCCLS 11), Cryptococcus neoformans (ATCC 208821, H99 type strain), Candida tropicalis (ATCC 750, type strain), Candida glabrata (ATCC 90030, NCCLS 84) and Cryptococcus deuterogattii (ATCC 32609, type strain) were obtained from the American Type Culture Collection (ATCC). Cryptococcus deuterogattii (CBS 7750), Candida auris (CBS 10913) and Candida auris (CBS 12373) were obtained from the CBS‐KNAW culture collection. The strains were maintained on glycerol/YPD (yeast extract‐peptone dextrose) broth (20:80 v/v) at −80 °C.
(§2) Antifungal minimum inhibitory concentration (MIC) assay: The cobalt complexes and antifungal control compounds were serially diluted in 50 μL of Yeast Nitrogen Broth (YNB; BD, Cat No. 233520 supplemented with 2 % glucose and 10 mM ammonium sulfate) two‐fold across the wells of non‐binding surface (NBS) 96‐well plates (Corning; Cat. No. 3641). Plates were set up in quadruplicate for each strain tested, and two biological replicates were conducted on separate assay days.
(§3) Yeast strains were cultured from glycerol onto YPD (Becton Dickinson 242720) agar at 30 °C for 72 h. For each strain, a minimum of five single colonies were taken from the agar plate and dissolved in sterile water and adjusted to form a yeast suspension of 1×10^6 to 5×10^6 CFU mL^−1 (as determined by OD530). The suspension was subsequently diluted into YNB media, and added to each well of the compound containing plates, giving a final cell density of 2.5×10^3 CFU mL^−1 and a total volume of 100 μL. Plates were covered and incubated at 35 °C for 36 h without shaking.
(§4) Growth inhibition of all strains was determined visually where the MIC was recorded as the lowest compound concentration with no visible growth. Fluconazole (Sigma F8929), ketoconazole (Sigma K1003) and micafungin (Sigma SML2288) were used as internal positive inhibitor controls for every strain tested.

[3] = test system: C. deuterogattii ATCC 32609; assay: Antifungal MIC assay (broth microdilution in YNB); type: cell-based, Cryptococcus deuterogattii
Excerpt: as §1, §2, §3, §4

[4] = test system: HEK293 cells; assay: Cytotoxicity assay (resazurin); type: cell-based, human; conditions: 20 h incubation, 0.8–100 μM; read-out: Tox CC50 (cytotoxicity against HEK293 cells)
Method: (§5) Cytotoxicity assay: HEK293 ATCC CRL‐1573 human embryonic kidney cells suspended in DMEM media (Gibco; 11330332) supplemented with 10 % FBS (GE; SH30084.03) and 100 U mL^−1 each penicillin/streptomycin (Invitrogen; 15070063) were counted manually in a Neubauer haemocytometer and seeded into 384‐well, black wall, clear bottom tissue culture plates (Corning; Cat. No. 3712) at 5000 cells per well in a volume of 20 μL. Manually, 20 μL of each compound dilution was plated in duplicate on the cells, for a final concentration range of 0.8–100 μM. The cells were incubated together with the compounds for 20 h at 37 °C, 5 % CO2.
(§6) Cytotoxicity (or cell viability) was measured by fluorescence, ex: 560/10 nm, em: 590/10 nm (F560/590), after addition of 5 μL of 25 μg mL^−1 resazurin ([…]; Sigma R7017) and after further incubation for 3 h at 37 °C in 5 % CO2, using media only as negative control and cells without inhibitors as positive control. CC50 (concentration at 50 % cytotoxicity) were calculated by curve fitting the inhibition values vs. log(concentration) of four replicates using a sigmoidal dose‐response function, with variable fitting values for bottom, top and slope using Prism 8. Tamoxifen (Sigma T5648) was used as internal control on each plate.

[5] = test system: C. glabrata ATCC 90030; assay: Antifungal MIC assay (broth microdilution in YNB); type: cell-based, Candida glabrata
Excerpt: as §1, §2, §3, §4

[6] = test system: C. albicans ATCC 90028; assay: Antifungal MIC assay (broth microdilution in YNB); type: cell-based, Candida albicans
Excerpt: as §1, §2, §3, §4

[7] = Cytotoxicity assay (resazurin); type: cell-based, human; conditions: human, HEK293 cells (ATCC CRL-1573); 20 h incubation, 0.8–100 μM; read-out: Tox CC50 (cytotoxicity against HEK293 cells)
Method: as §5, §6

[8] = Stability in water by 1H NMR (axial ligand exchange); type: physicochemical; conditions: room temperature
Excerpt: Because our previous results had shown that complexes bearing weak axial donors are more biologically active, we sought to synthesise a very labile Co^III‐bis(thiosemicarbazone) complex by using a weakly donating pyridine axial monodentate ligand. We were unable to synthesise a complex using unsubstituted pyridine, probably because it is a such a weak donor ligand that it will not remain bound to the Co^III center even briefly, preventing isolation of the complex. However, we were able to isolate a complex (3) bearing the more electron‐donating 4‐(dimethylamino)pyridine (DMAP) ligand in the axial positions. As expected, this complex is extremely labile. […] In our hands, the bis‐aqua complex could not be isolated.

[9] = test system: C. neoformans; assay: CO-ADD screening, broth microdilution MIC, yeast reference strain; type: cell-based
Excerpt: (§7) As previously mentioned, complexes 1, 2 and 4 were studied in earlier biological assays. […] In our CO‐ADD screening, using broth microdilution (BMD) MIC assays (Table S2), complexes 1–3 were effective at killing drug‐susceptible yeast reference strains of C. albicans and C. neoformans while displaying no antibacterial activity.

[10] = test system: C. albicans; assay: as above; type: cell-based
Excerpt: as §7

[11] = range of MICs, n=8, 35 °C, 36 h, visual, read-out: MIC C. deuterogattii CBS 7750
[12] = range of MICs, n=8, 35 °C, 36 h, visual, read-out: MIC C. deuterogattii ATCC 32609
[13] = range of MICs, n=8, 35 °C, 36 h, visual, read-out: MIC C. glabrata ATCC 90030
[14] = range of MICs, n=8, 35 °C, 36 h, visual, read-out: MIC C. albicans ATCC 90028
[15] = Cryptococcus deuterogattii, CBS7750, Table S1, read-out: MIC Cryptococcus deuterogattii CBS 7750
[16] = Cryptococcus deuterogattii, CBS7750, range of MICs, n=8, 35 °C, 36 h, visual, read-out: MIC C. deuterogattii CBS 7750
[17] = Cryptococcus deuterogattii, ATCC32609, Table S1, read-out: MIC Cryptococcus deuterogattii ATCC 32609
[18] = Cryptococcus deuterogattii, ATCC32609, range of MICs, n=8, 35 °C, 36 h, visual, read-out: MIC C. deuterogattii ATCC 32609
[19] = Nakaseomyces glabratus, ATCC90030, Table S1, read-out: MIC Candida glabrata ATCC 90030
[20] = Nakaseomyces glabratus, ATCC90030, range of MICs, n=8, 35 °C, 36 h, visual, read-out: MIC C. glabrata ATCC 90030
[21] = Candida albicans, ATCC90028, Table S1, read-out: MIC Candida albicans ATCC 90028
[22] = Candida albicans, ATCC90028, range of MICs, n=8, 35 °C, 36 h, visual, read-out: MIC C. albicans ATCC 90028
[23] = range of MICs, n=8, 35 °C, 36 h, visual

Compound: [Co(3F‐salophen)(3F‐BnNH2)2]NO3 [Compound 6]
- First reduction E pc [1]: −0.59 V vs. SCE
- Second reduction E 1/2 [1]: −1.06 V vs. SCE
- MIC Cryptococcus deuterogattii CBS 7750 ([2]; Table S1): > 69.4 µg/mL
- MIC [2, 11]: >100 µM
- MIC Cryptococcus deuterogattii ATCC 32609 ([3]; Table S1): 69.4 µg/mL
- MIC [3, 12]: 100 µM
- CC50 [4]: > 100 µM
- MIC Candida glabrata ATCC 90030 ([5]; Table S1): > 69.4 µg/mL
- MIC [5, 13]: >100 µM
- MIC Candida albicans ATCC 90028 ([6]; Table S1): 69.4 µg/mL
- MIC [6, 14]: 100 µM

Compound: Oc1c(F)cccc1/C=N/CC/N=C/c1cccc(F)c1O [Compound L3]
- MIC [2, 15]: > 30.4 µg/mL
- MIC [2, 16]: > 100 µM
- MIC [3, 17]: > 30.4 µg/mL
- MIC [3, 18]: 100 µM
- CC50 at 20 h [7]: > 100 µM
- MIC [5, 19]: > 30.4 µg/mL
- MIC [5, 20]: > 100 µM
- MIC [6, 21]: > 30.4 µg/mL
- MIC [6, 22]: > 100 µM

Compound: CC(/C=C(\O)C(F)(F)F)=N\CC/N=C(C)/C=C(\O)C(F)(F)F [Compound L2]
- MIC [2, 15]: > 33.2 µg/mL
- MIC [2, 16]: > 100 µM
- MIC [3, 17]: > 33.2 µg/mL
- MIC [3, 18]: > 100 µM
- CC50 at 20 h [7]: > 100 µM
- MIC [5, 19]: > 33.2 µg/mL
- MIC [5, 20]: > 100 µM
- MIC [6, 21]: > 33.2 µg/mL
- MIC [6, 22]: > 100 µM

Compound: CC(=N\NC(N)=S)/C(C)=N/NC(N)=S [Compound L1]
- MIC [2, 15]: > 23.2 µg/mL
- MIC [2, 16]: > 100 µM
- MIC [3, 17]: > 23.2 µg/mL
- MIC [3, 18]: > 100 µM
- CC50 at 20 h [7]: > 100 µM
- MIC [5, 19]: > 23.2 µg/mL
- MIC [5, 20]: > 100 µM
- MIC [6, 21]: > 23.2 µg/mL
- MIC [6, 22]: > 100 µM

Compound: CC1=[N+]2N=C(N)[S][Co-3]23([n+]2ccc(N(C)C)cc2)([n+]2ccc(N(C)C)cc2)[S]C(N)=N[N+]3=C1C.O=[N+]([O-])[O-] [Compound 3, [Co(ATS)(DMAP)2]NO3]
- First reduction E pc [1]: −0.69 V vs. SCE
- Second reduction E 1/2 [1]: −1.17 V vs. SCE
- MIC Cryptococcus deuterogattii CBS 7750 ([2]; Table S1): 0.93 µg/mL
- MIC [2, 11]: 1.56 µM
- MIC Cryptococcus deuterogattii ATCC 32609 ([3]; Table S1): 0.93 to 1.86 µg/mL
- MIC C. deuterogattii ATCC 32609 [3, 23]: 1.56 to 3.12 µM
- Stability on dissolution in water ([8]; 1H NMR, on dissolution): immediately yields a mixture of species
- Stability in water overnight ([8]; incubation overnight): totally converted into the bis‐aqua complex
- CC50 [4]: > 100 µM
- MIC Candida glabrata ATCC 90030 ([5]; Table S1): 29.7 µg/mL
- MIC [5, 13]: 50 µM
- MIC Candida albicans ATCC 90028 ([6]; Table S1): 0.93 µg/mL
- MIC [6, 14]: 1.56 µM

Compound: O=[N+]([O-])[O-].O=[N+]([O-])[O-].[Co+2] [Co, Co(NO3)2, reference compound]
- MIC Cryptococcus deuterogattii CBS 7750 ([2]; Table S1): > 29.1 µg/mL
- MIC [2, 11]: >100 µM
- MIC Cryptococcus deuterogattii ATCC 32609 ([3]; Table S1): > 29.1 µg/mL
- MIC [3, 12]: >100 µM
- CC50 [4]: > 100 µM
- MIC Candida glabrata ATCC 90030 ([5]; Table S1): > 29.1 µg/mL
- MIC [5, 13]: >100 µM
- MIC Candida albicans ATCC 90028 ([6]; Table S1): > 29.1 µg/mL
- MIC [6, 14]: >100 µM

Compound: O=[N+]([O-])[O-].[NH3+][Co-3]123([NH3+])[O]c4c(F)cccc4C=[N+]1c1ccccc1[N+]2=Cc1cccc(F)c1[O]3 [Compound 7, [Co(3F‐salophen)(NH3)2]NO3]
- Antifungal activity, C. neoformans reference strain [9]: neither antibacterial nor antifungal activity
- Antifungal activity, C. albicans reference strain [10]: neither antibacterial nor antifungal activity
- First reduction E pc [1]: −0.75 V vs. SCE
- Second reduction E 1/2 [1]: −1.08 V vs. SCE
- MIC Cryptococcus deuterogattii CBS 7750 ([2]; Table S1): 47.8 µg/mL
- MIC [2, 11]: 100 µM
- MIC Cryptococcus deuterogattii ATCC 32609 ([3]; Table S1): 47.8 µg/mL
- MIC [3, 12]: 100 µM
- CC50 [4]: > 100 µM
- MIC Candida glabrata ATCC 90030 ([5]; Table S1): 47.8 µg/mL
- MIC [5, 13]: 100 µM
- MIC Candida albicans ATCC 90028 ([6]; Table S1): 23.9 to 47.8 µg/mL
- MIC C. albicans ATCC 90028 [6, 23]: 50 to 100 µM
